Results: patent publication US5451564A, “Antimicrobial composition comprising N-hydroxy heterocyclic thiones” (priority 1991, dated 1995)

Key:
[1] = aqueous solubility of zinc complex after milling in pyrophosphate solution and dilution with distilled water until clear; assay type: physicochemical; settings: for solubility in the presence of pyrophosphate (in words): relative to absence of oxy-phosphorus compound
Procedure: The concentration of the 2:1 zinc complex was then determined.
The zinc complex was milled in a 0.1 molar solution of tetrasodium pyrophosphate as described in Example 1. This was then diluted with distilled water until a clear solution was obtained.
These solutions were prepared by the method described in Example 1.

[2] = tested on: Pseudomonas aeruginosa (ATCC 19429); assay: survival of bacteria in shampoo preserved with biocide; assay type: cell-based
Procedure: A shampoo having the following composition
*Empicol, Empilan and Empigen are registered Trademarks of Albright and Wilson, was prepared by stirring the Empicol ESB70 in water, and then adding the Empilan 2502 followed by the Empigen BB to give a clear homogenous solution. An aqueous solution of citric acid was added with stirring to give a pH of 7. Finally, the sodium chloride was added and the whole diluted to parts by adding water.
Aliquots (20 parts) of the above shampoo were then prepared with concentrations of the biocides indicated in Table 4 at 500, 125, 31.25 and 7.8 ppm of active ingredient.
The above samples were then challenged with a 0.2 parts by volume inoculum of a 24 hour culture of Pseudomonas aeruginosa (ATCC 19429) containing approximately 1×10^8 colony forming units (cfu's) per milliliter. The samples were then incubated in the dark at 25° C., 1 milliliter samples taken after 24 hours, 48 hours and 7 days and the number of surviving bacteria determined.
The procedure described in Example 7 was repeated, except that the compounds and formulations used in that example were replaced by a commercially available formulation of zinc pyrithione or a 1% dispersion of the 2:1 complex of 1-hydroxy-2-pyridinethione and zinc in an aqueous solution of 0.1M tetrasodium pyrophosphate prepared as described in Example 1.

[3] = tested on: mixed algal suspension (Stichococcus bacillaris, Gloecapsa alpicola, Nostoc commune, Trentepohlia aurea); settings: zinc complex of 1-hydroxy-2-pyridinethione as 1% dispersion in 0.1M pyrophosphate (sample a: nil); re-challenge after 2 weeks, examined after 4 weeks
Procedure: A sample containing no biocide was include as a control.
The above aliquots were then inoculated with 0.1 parts by volume of a mixed algal suspension of 7 day cultures of the following algae.
The samples were then incubated at 15° to 20° C. and exposed to artificial illumination of between 700 and 1200 LUX over a two week period, where the illumination was provided from the side and the light varied over a 24 hour period to give 16 hours illumination and 8 hours darkness.
After a two week incubation period, the samples were re-challenged with the mixed algal inoculum, and again examined after a 4 week incubation period. The minimum inhibitory concentration at which algal growth was suppressed was then established by visual assessment.

[4] = tested on: bacteria, fungi, yeasts and algae; settings: in the presence of pyrophosphate salts
Procedure: Further aspects of the present invention are described in the following illustrative examples. Unless otherwise stated all refer to parts by weight.
(§1) In the microbiological testing, the compositions were tested for anti-microbial activity against bacteria and/or fungi including a yeast. The bacteria used were one or more of Eshcerichia coli, Pseudomonas aeruginosa, Staphylococcus aureus and Bacillus subtills. The fungi/yeast used were one or more of Aspergillus niger, Candida albicans, Aureobasidum pullulans, Gliocladium roseum, and Penicillium pinophilum.

Bacillus subtills = settings: agar, 4 days at 25° C; 1% dispersion in 0.1 molar pyrophosphate (sample a: nil)
Procedure: as §1
(§2) These test organisms will be referred to hereafter as EC, PA, SA, BS, AN CA, AP, GR and PP respectively.
(§3) The material to be tested was dissolved in a suitable solvent and the solution obtained diluted with a further quantity of the same solvent to give a desired product concentration.
(§4) To a suitable agar medium was added a quantity of the product solution to give a desired concentration of the product. The agar medium containing the product was poured into petri dish plates and allowed to set.
(§5) The test organisms were surface inoculated onto the test plates by means of a multi-point inoculator. Each test plate was inoculated with both bacteria, fungi and yeast. The plates were incubated for four days at 25° C.
(§6) At the end of the incubation period, the plates were assessed visually for growth of the micro-organisms. The concentration of the product which inhibited the growth of a particular micro-organisms was recorded. This is the minimum inhibitory concentration (M.I.C.).
(§7) Generally, the compositions are evaluated against bacteria at the 25 and 100 ppm levels, and against fungi and yeast at the 5, 25 and 100 ppm levels.
(§8) 1% dispersions of the 1:2 zinc complex obtained from 1-hydroxy-2-pyridinethione were prepared in 0.1 molar solutions of various pyrophosphates as described in Example 1.

Pseudomonas aeruginosa = settings: agar, 4 days at 25° C; 1% dispersion in 0.1 molar pyrophosphate (sample a: nil)
Procedure: as §1, §2, §3, §4, §5, §6, §7, §8

Penicillium pinophilum = settings: agar, 4 days at 25° C; 1% dispersion in 0.1 molar pyrophosphate (sample a: nil)
Procedure: as §1, §2, §3, §4, §5, §6, §7, §8

Aureobasidum pullulans = settings: agar, 4 days at 25° C; 1% dispersion in 0.1 molar pyrophosphate (sample a: nil)
Procedure: as §1, §2, §3, §4, §5, §6, §7, §8

Candida albicans = settings: agar, 4 days at 25° C; 1% dispersion in 0.1 molar pyrophosphate (sample a: nil)
Procedure: as §1, §2, §3, §4, §5, §6, §7, §8

Gliocladium roseum = settings: agar, 4 days at 25° C; 1% dispersion in 0.1 molar pyrophosphate (sample a: nil)
Procedure: as §1, §2, §3, §4, §5, §6, §7, §8

Staphylococcus aureus = settings: agar, 4 days at 25° C; 1% dispersion in 0.1 molar pyrophosphate (sample a: nil)
Procedure: as §1, §2, §3, §4, §5, §6, §7, §8

Aspergillus niger = settings: agar, 4 days at 25° C; 1% dispersion in 0.1 molar pyrophosphate (sample a: nil)
Procedure: as §1, §2, §3, §4, §5, §6, §7, §8

Eshcerichia coli = settings: agar, 4 days at 25° C; 1% dispersion in 0.1 molar pyrophosphate (sample a: nil)
Procedure: as §1, §2, §3, §4, §5, §6, §7, §8

Row | SMILES | solubility in the presence of pyrophosphate (in words) [1] | Solubility ([1]; zinc dithiocarbamate complexes, nil or 0.1 M tetrasodium pyrophosphate) | viable bacteria ([2]; 125 ppm, after 24 HRS) | viable bacteria ([2]; 125 ppm, after 48 HRS) | viable bacteria ([2]; 500 ppm, after 7 DAYS) | viable bacteria ([2]; 500 ppm, after 24 HRS) | viable bacteria ([2]; 500 ppm, after 48 HRS) | MIC (algal growth suppressed) [3] | effect of increased solubility in pyrophosphate on microbiological activity [4] | Solubility ([1]; 1:2 zinc complex of 1-hydroxy-2-pyridinethione, pebble milled in 0.1 molar pyrophosphate salt (sample a: nil), diluted with distilled water) | MIC BS (Bacillus subtills) | MIC PA (Pseudomonas aeruginosa) | MIC PP (Penicillium pinophilum) | MIC AP (Aureobasidum pullulans) | MIC CA (Candida albicans) | MIC GR (Gliocladium roseum) | MIC SA (Staphylococcus aureus) | MIC AN (Aspergillus niger) | MIC EC (Eshcerichia coli)
1 | S=C([S-])NCCNC(=S)[S-].[Zn+2] [EBD, zinc complex of ethylene bis dithiocarbamate] | increased solubility | < 5 ppm |  |  |  |  |  |  |  |  |  |  |  |  |  |  |  |  | 
2 | CN(C)C(=S)[S-].CN(C)C(=S)[S-].[Zn+2] [ZDM, zinc complex of dimethyldithiocarbamate] |  |  | < 10 | < 10 | < 10 | < 10 | < 10 |  |  |  |  |  |  |  |  |  |  |  | 
3 | On1ccccc1=S.On1ccccc1=S.[Zn] [a, 1:2 zinc complex of 1-hydroxy-2-pyridinethione] | improved solubility |  |  |  |  |  |  | 0.64 ppm | does not adversely affect the microbiological activity | < 10 ppm | 25 ppm | NA (Not active at 100 ppm) | 5 ppm | 5 ppm | 25 ppm | 5 ppm | 25 ppm | 25 ppm | 25 ppm
